Laboratory results from US6261997A, “Slow release formulations of pesticides” (Yissum Research Development Company of the Hebrew …, priority 1996, dated 2001).

Experiments:
[1] = Adsorption isotherms of herbicide on montmorillonite pre-adsorbed by organic cations; format: physicochemical; settings: for adsorption on montmorillonite pre adsorbed by organic cations: FIGS. 1A and 1B
Method: A suitable concentrated solution of the organic cation is added dropwise to a 0.5 or 1% W/W of clay suspension (e.g. Montmorillonite; Sepiolite; Palygorskite; Pillared clays). After separation of the supernatant, the organoclay complex is dried and ground to less than 50 μm. The herbicide is dissolved in a suitable volatile organic solvent e.g. hexane, dichloro methane, acetone, and mixed with the solid organoclay in weight relations of 5-20 g of herbicide to 95-80 g organoclay. The organic solvent is evaporated under gentle reduced pressure and continuous mixing and the resulting herbicide-organoclay complex is ground to less than 50 μm. The pesticide formulation can be further improved by adding water or another solvent to the dried material; removing the loosely bound pesticide, and drying again.
BTMS 0.8 mole/kg, BTEA 0.8 mole/kg, BTEA 0.5 mole/kg or HDTMA 0.5 mole/kg clay. Bars indicate standard errors.

green foxtail = assay: Laboratory soil column leaching bioassay (growth inhibition of sensitive test plants at soil depths); format: in vivo, green foxtail (setaria); wheat also sown; settings: laboratory and field experiments
Method: 1. Under laboratory and field conditions, the following bioassay column technique was used to evaluate the leaching of the herbicide using sensitive plants to the given herbicide. Briefly, the experiments have used 100×100×200 mm tin columns filled with soil. The column surface is sprayed with either the commercial formulation of the herbicide or with the organoclay formulated herbicide. The herbicide is added at the same amounts as in the field applications, i.e., 200 g of the active ingredient per 1000 m^2. Then the columns are irrigated with 50 m^3 /[…]. The water is added throughout 5 hours. The columns are left for 24 hr and then sliced along their lengths into two parts (right and left). Two plants, setaria and wheat were sown in each part in two rows and irrigated with water. The height and the weight of the plants 7 days after emergence are used as an indicator of the presence of herbicide at different depths in the soil column.
Alachlor was applied at 2.0 kg/ha followed by irrigation of 500 m^3 /ha. bars indicate standard errors.
Green foxtail growth was used to estimate the presence of matolachlor. Metolachlor formulations were commercial formulation (comm.); metolachlor on clay alone (Mont); metolachlor on clay pre-absorbed with BTMA 0.5 mole/kg clay. The clay based formulations contained 13% metolachlor. […] Bars indicate standard errors.
Green foxtail growth was used to estimate the presence of matolachlor. Metolachlor formulations were commercial formulation (comm.); metolachlor on clay pre-absorbed with PTMA 0.5 mole/kg clay. The clay based formulations contained 13% metolachlor. […] Bars indicate standard errors.

| Structure (SMILES) | adsorption on montmorillonite pre adsorbed by organic cations [1] | adsorption on montmorillonite preadsorbed by PTMA ([1]; PTMA 0.5 mmol/g clay) | inhibition of movement / leaching of the herbicide in the soil profile (green foxtail) |
| --- | --- | --- | --- |
| CCOCN(C(=O)CCl)c1c(C)cccc1CC [acetochlor] | enhanced adsorption | Enhanced adsorption | The same trend was also found |
| CCCC[N+](CCCC)(CCCC)Cc1ccccc1.[Cl-] [BTBA, benzyl tributyl ammonium chloride] |  |  | significant inhibition of herbicide leaching has been achieved |
| CCc1cccc(CC)c1N(COC)C(=O)CCl [alachlor] | enhanced adsorption |  |  |
| CNc1cnn(-c2cccc(C(F)(F)F)c2)c(=O)c1Cl [norflurazon] |  |  | The same trend was also found |
| C[N+](C)(C)Cc1ccccc1.[Cl-] [BTMA, benzyltrimethyl ammonium chloride] |  |  | significant inhibition of herbicide leaching has been achieved |
| CC[N+](CC)(CC)Cc1ccccc1.[Br-] [BTEA, benzyltriethyl ammonium bromide] |  |  | significant inhibition of herbicide leaching has been achieved |
